Measured values as given in patent publication EP0297534B1, “Castanospermine esters and glycosides” (MERRELL DOW PHARMACEUTICALS INC., priority 1987, dated 1989).

Columns and labels:
Intestinal Sucrase = target: T1, Intestinal Sucrase (Rattus norvegicus, UniProt P23739); assay: Intestinal sucrase inhibition (glucose liberated from sucrose); format: biochemical; settings: crude homogenate from rat intestine; 1 hour preincubation with test compound; sucrose substrate, pH 5.9; read-out: IC₅₀ Intestinal Sucrase
T1 construct: Sucrase was isolated from rat intestine as a crude homogenate; from tissue; host or cells: rat intestine
T1 sequence (P23739 whole entry): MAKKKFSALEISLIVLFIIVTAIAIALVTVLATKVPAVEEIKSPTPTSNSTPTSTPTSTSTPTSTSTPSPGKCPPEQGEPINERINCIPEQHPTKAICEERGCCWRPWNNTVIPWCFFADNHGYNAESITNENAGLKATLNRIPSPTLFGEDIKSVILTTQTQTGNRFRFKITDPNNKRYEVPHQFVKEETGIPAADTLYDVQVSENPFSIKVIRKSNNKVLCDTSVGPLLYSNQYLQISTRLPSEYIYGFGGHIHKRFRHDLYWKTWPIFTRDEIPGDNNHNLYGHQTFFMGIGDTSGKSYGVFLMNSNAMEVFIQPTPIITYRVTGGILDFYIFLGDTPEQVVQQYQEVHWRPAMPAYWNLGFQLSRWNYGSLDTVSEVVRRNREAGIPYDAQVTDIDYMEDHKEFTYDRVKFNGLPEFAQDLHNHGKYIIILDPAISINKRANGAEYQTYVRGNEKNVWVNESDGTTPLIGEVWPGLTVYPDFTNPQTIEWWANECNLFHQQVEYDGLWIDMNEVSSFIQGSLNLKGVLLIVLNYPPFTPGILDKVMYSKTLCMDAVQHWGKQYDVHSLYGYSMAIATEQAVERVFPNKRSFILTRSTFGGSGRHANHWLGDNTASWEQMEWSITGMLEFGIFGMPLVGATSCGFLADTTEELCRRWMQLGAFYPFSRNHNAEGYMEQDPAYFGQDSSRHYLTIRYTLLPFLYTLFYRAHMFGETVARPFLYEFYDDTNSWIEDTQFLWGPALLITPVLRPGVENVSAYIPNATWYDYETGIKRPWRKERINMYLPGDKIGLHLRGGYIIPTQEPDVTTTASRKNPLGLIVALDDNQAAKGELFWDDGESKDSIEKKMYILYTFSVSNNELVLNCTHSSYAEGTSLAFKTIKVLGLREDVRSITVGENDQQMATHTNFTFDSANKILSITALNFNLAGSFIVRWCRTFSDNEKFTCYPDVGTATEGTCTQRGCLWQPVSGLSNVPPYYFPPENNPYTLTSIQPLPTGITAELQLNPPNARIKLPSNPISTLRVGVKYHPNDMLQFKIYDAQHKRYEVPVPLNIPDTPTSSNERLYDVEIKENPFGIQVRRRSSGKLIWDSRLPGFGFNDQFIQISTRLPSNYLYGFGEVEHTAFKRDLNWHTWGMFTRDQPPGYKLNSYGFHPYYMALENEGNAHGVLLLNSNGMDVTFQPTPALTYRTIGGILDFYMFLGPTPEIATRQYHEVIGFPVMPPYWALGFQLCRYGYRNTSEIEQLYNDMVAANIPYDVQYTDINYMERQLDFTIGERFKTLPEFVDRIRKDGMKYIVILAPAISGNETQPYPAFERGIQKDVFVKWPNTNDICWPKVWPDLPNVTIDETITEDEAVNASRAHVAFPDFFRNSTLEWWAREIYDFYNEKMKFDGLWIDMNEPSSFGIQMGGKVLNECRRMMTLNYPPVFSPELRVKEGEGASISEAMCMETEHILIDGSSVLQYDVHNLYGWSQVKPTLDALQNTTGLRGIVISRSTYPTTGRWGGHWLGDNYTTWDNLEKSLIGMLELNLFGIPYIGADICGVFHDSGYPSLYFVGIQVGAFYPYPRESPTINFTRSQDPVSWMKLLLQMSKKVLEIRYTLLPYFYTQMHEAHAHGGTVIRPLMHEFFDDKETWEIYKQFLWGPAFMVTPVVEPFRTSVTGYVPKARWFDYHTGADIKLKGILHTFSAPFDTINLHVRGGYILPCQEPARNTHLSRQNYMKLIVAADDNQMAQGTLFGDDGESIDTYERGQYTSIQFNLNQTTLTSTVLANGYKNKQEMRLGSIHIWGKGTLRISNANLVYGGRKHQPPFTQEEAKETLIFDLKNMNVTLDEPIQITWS
Method: Sucrase was isolated from rat intestine as a crude homogenate using the salt extraction procedure of Kolinska [Biochem. Biophys. Acta, 284, 235 (1984)]. Incubation mixtures contained 100 µl of enzyme preparation plus test compound and were incubated for 1 hour before the addition of 6.6 µmole sucrose in 100 µl 0.1 M sodium maleate, pH 5.9. The mixtures were incubated an additional 30 minutes and then heat inactivated at 80-100°C for 3 minutes. Denatured protein was removed by centrifugation. Glucose liberated was determined by glucose dehydrogenase reagents (Seragen Diagnostics).

Lysosomal α-Glucosidase = target: T2, Lysosomal α-Glucosidase (Rattus norvegicus, UniProt Q6P7A9); assay: Lysosomal α-glucosidase inhibition (p-nitrophenyl-α-D-glucoside hydrolysis); format: biochemical; settings: partially purified from rat liver, 1 hour preincubation at 37°C, pH 4.2, read-out: IC₅₀ Lysosomal α-Glucosidase
T2 construct: Lysosomal α-glucosidase was isolated and partially purified from rat liver; from tissue; host or cells: rat liver
T2 sequence (Q6P7A9 70-953): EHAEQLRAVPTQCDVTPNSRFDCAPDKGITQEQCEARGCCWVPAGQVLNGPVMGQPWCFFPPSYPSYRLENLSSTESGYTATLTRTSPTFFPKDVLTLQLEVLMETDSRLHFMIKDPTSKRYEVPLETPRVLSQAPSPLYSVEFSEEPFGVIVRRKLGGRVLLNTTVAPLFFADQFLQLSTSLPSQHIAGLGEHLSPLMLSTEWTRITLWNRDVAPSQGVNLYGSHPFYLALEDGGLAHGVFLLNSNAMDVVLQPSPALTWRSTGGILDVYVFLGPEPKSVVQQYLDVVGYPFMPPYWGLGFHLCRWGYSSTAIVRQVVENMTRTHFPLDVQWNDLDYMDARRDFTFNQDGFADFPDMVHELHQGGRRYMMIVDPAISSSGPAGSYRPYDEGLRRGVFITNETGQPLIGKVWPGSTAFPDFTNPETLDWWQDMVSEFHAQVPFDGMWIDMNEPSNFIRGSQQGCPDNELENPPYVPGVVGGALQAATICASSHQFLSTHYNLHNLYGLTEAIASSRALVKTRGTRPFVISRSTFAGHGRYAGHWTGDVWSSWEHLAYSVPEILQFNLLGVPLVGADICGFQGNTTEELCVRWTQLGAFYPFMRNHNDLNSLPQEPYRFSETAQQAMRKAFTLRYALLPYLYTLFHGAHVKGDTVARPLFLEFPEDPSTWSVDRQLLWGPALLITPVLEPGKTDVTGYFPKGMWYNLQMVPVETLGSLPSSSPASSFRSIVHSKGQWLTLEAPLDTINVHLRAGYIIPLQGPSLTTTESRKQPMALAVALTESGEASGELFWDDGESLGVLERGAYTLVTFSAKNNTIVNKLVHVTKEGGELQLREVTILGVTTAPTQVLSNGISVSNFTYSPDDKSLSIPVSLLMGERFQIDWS
Method: Lysosomal α-glucosidase was isolated and partially purified from rat liver by the method of Dissous [Anal. Biochem., 116, 35 (1981)] through the ammonium sulfate fractionation steps. Enzyme was incubated with test compound for 1 hour at 37°C prior to the addition of p-nitrophenyl-α-D-glucoside in a final volume of 0.6 ml of 0.1 M sodium acetate, 25 mM potassium chloride, pH 4.2. Mixtures were incubated for an additional 30 minutes at 37°C and then heat inactivated at 90°C. Denatured protein was removed by centrifugation. One ml of 0.1 M sodium carbonate was added to the supernatant fraction and liberated nitrophenol determined by its absorption at 410 nm.

serum glucose elevation = assay: Sucrose load test: inhibition of serum glucose elevation; format: in vivo, ICR Swiss mice; settings: for minimal effective dose: Mus musculus, 0.5 h, oral, test compound plus sucrose at 2.0 g/kg, serum glucose at 30 minutes post sucrose, amount needed to significantly inhibit serum glucose elevation; for Duration Of Action: oral test compound 1, 2 or 3 hours before sucrose at 2.0 g/kg, serum glucose 30 minutes post sucrose
Method: The compounds of the present invention were further tested in a sucrose load test to determine their ability to inhibit serum glucose elevation. The procedure can be summarized as follows.
ICR Swiss mice, fasted for 18-20 hours, were orally dosed with test compound plus sucrose at 2.0 g/kg. At 30 minutes post sucrose, the animals were sacrificed and their serum glucose concentrations were determined. […] To test duration of action, mice were orally dosed twice. The initial dose was test compound or vehicle. After 1, 2, or 3 hours, the mice were dosed with sucrose at 2.0 g/kg. After an additional 30 minutes post sucrose, the animals were sacrificed and their serum glucose concentrations were determined. Test compound activity was indicated by a significant difference of serum glucose concentration from the corresponding control. The activity observed can be summarized as follows: TABLE II

| SMILES | IC50 (Intestinal Sucrase) | IC50 (Lysosomal α-Glucosidase) | minimal effective dose (serum glucose elevation) | Duration Of Action (serum glucose elevation) |
| --- | --- | --- | --- | --- |
| O=C(O[C@H]1[C@H](O)[C@H]2[C@@H](O)CCN2C[C@@H]1O)c1ccc(Cl)cc1Cl [7-(2,4-Dichlorobenzoate), [1S-(1α,6β,7α,8β,8aβ)]-octahydro-1,6,7,8-indolizinetetrol 7-(2,4-dichlorobenzoate)] | 0.4 µM | 100 µM | 20 mg/kg |  |
| O=C(O[C@H]1[C@H](O)[C@H]2[C@@H](O)CCN2C[C@@H]1O)c1ccccc1 [7-Benzoate, [1S-(1α,6β,7α,8β,8aβ)]-octahydro-1,6,7,8-indolizinetetrol 7-benzoate] | 2 µM | 200 µM | 5 mg/kg |  |
| CCCC(=O)O[C@H]1[C@H](O)[C@@H](OC(=O)CCC)CN2CC[C@H](O)[C@H]12 [6,8-Dibutyrate, [1S-(1α,6β,7α,8β,8aβ)]-octahydro-1,6,7,8-indolizinetetrol 6,8-dibutanoate] | 0.2 µM | > 1000 µM |  |  |
| OC[C@H]1O[C@H](O[C@H]2[C@H](O)[C@@H](O)CN3CC[C@H](O)[C@H]23)[C@H](O)[C@@H](O)[C@@H]1O [8-α-D-Glucopyranoside, 8-O-(α-D-glucopyranosyl)-[1S-(1α,6β,7α,8β,8aβ)]-octahydro-1,6,7,8-indolizinetetrol] | 0.05 µM | 300 µM | 1 mg/kg | ≧3 hours |
| O=C(O[C@H]1[C@H](O)[C@H]2[C@@H](O)CCN2C[C@@H]1OC(=O)c1ccccc1)c1ccccc1 [6,7-Dibenzoate, [1S-(1α,6β,7α,8β,8aβ)]-octahydro-1,6,7,8-indolizinetetrol 6,7-dibenzoate] | 2 µM | > 1000 µM | 20 mg/kg |  |

More lines, main results first:

| IC50 (Intestinal Sucrase) | IC50 (Lysosomal α-Glucosidase) | SMILES | minimal effective dose (serum glucose elevation) | Duration Of Action (serum glucose elevation) |
| --- | --- | --- | --- | --- |
| 0.4 µM | 6 µM | O=C(O[C@H]1[C@H](O)[C@H]2[C@@H](O)CCN2C[C@@H]1O)c1ccc(F)cc1 [7-(4-Fluorobenzoate), [1S-(1α,6β,7α,8β,8aβ)]-octahydro-1,6,7,8-indolizinetetrol 7-(4-fluorobenzoate)] | 5 mg/kg | 2 h |
| 2 µM | 1000 µM | COc1ccc(C(=O)O[C@H]2CN3CC[C@H](O)[C@@H]3[C@@H](O)[C@@H]2O)cc1 [6-(4-Methoxybenzoate), (1S-(1α,6β,7α,8β,8aβ)]-octahydro-1,6,7,8-indolizinetetrol 6-(4-methoxybenzoate)] |  |  |
| 0.08 µM | 800 µM | O=C(O[C@H]1CN2CC[C@H](O)[C@@H]2[C@@H](O)[C@@H]1O)c1ccccc1 [6-Benzoate, (1S-(1α,6β,7α,8β,8aβ)]-octahydro-1,6,7,8-indolizinetetrol 6-benzoate] | 1 mg/kg | 1 hour hours |
| 0.2 µM | 4 µM | O=C(O[C@H]1CN2CC[C@H](O)[C@@H]2[C@@H](O)[C@@H]1O)c1ccc(F)cc1 [6-(4-Fluorobenzoate), [1S-(1α,6β,7α,8β,8aβ)]-octahydro-1,6,7,8-indolizinetetrol 6-(4-fluorobenzoate)] | 5 mg/kg |  |
| 4 µM | > 1000 µM | O=C(O[C@H]1[C@H](O)[C@H]2[C@@H](O)CCN2C[C@@H]1OC(=O)c1ccc(F)cc1)c1ccc(F)cc1 [6,7-bis(4-Fluorobenzoate), [1S-(1α,6β,7α,8β,8aβ)]-octahydro-1,6,7,8-indolizinetetrol 6,7-bis(4-fluorobenzoate)] |  |  |
| 0.3 µM | 1000 µM | Cc1ccc(C(=O)O[C@H]2CN3CC[C@H](O)[C@@H]3[C@@H](O)[C@@H]2O)cc1 [6-(4-Methylbenzoate), [1S-(1α,6β,7α,8β,8aβ)]-octahydro-1,6,7,8-indolizinetetrol 6-(4-methylbenzoate)] |  |  |
